In PubChem BioAssay (NCI):
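Test compounds were applied to cells in 96-well plates for 48 hours at 5 doses. TGI: total growth inhibition.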

Columns and labels:
Assay in all cases: NCI-60 cell line screen, 48 h
UACC-62 melanoma = test system: UACC-62 melanoma
ACHN renal = test system: ACHN renal
NCI-H226 lung = test system: NCI-H226 lung
SK-MEL-5 melanoma = test system: SK-MEL-5 melanoma
SN12C renal = test system: SN12C renal
NCI-H522 lung = test system: NCI-H522 lung
SK-MEL-2 melanoma = test system: SK-MEL-2 melanoma
COLO 205 colon = test system: COLO 205 colon
OVCAR-8 ovarian = test system: OVCAR-8 ovarian
NCI/ADR-RES ovarian = test system: NCI/ADR-RES ovarian
A498 renal = test system: A498 renal
MCF7 breast = test system: MCF7 breast
LOX IMVI melanoma = test system: LOX IMVI melanoma
MDA-MB-435 = test system: MDA-MB-435
T-47D breast = test system: T-47D breast
RXF 393 renal = test system: RXF 393 renal
NCI-H23 lung = test system: NCI-H23 lung
OVCAR-4 ovarian = test system: OVCAR-4 ovarian
MALME-3M melanoma = test system: MALME-3M melanoma
U251 CNS = test system: U251 CNS
HL-60(TB) leukemia = test system: HL-60(TB) leukemia
SNB-19 CNS = test system: SNB-19 CNS
HS 578T breast = test system: HS 578T breast
OVCAR-3 ovarian = test system: OVCAR-3 ovarian
CCRF-CEM leukemia = test system: CCRF-CEM leukemia
HOP-62 NSCLC = test system: HOP-62 NSCLC
SF-295 CNS = test system: SF-295 CNS
SR leukemia = test system: SR leukemia
786-0 renal = test system: 786-0 renal
NCI-H460 lung = test system: NCI-H460 lung
OVCAR-5 ovarian = test system: OVCAR-5 ovarian
HT29 colon = test system: HT29 colon
SNB-75 CNS = test system: SNB-75 CNS
A549 NSCLC = test system: A549 NSCLC
SK-OV-3 ovarian = test system: SK-OV-3 ovarian
MDA-N = test system: MDA-N
SF-268 CNS = test system: SF-268 CNS
HCT-116 colon = test system: HCT-116 colon
KM12 colon = test system: KM12 colon
UACC-257 melanoma = test system: UACC-257 melanoma
RPMI-8226 leukemia = test system: RPMI-8226 leukemia
HOP-92 NSCLC = test system: HOP-92 NSCLC
SW-620 colon = test system: SW-620 colon
PC-3 prostate = test system: PC-3 prostate
K-562 leukemia = test system: K-562 leukemia
UO-31 renal = test system: UO-31 renal
IGROV1 ovarian = test system: IGROV1 ovarian
MDA-MB-231 breast = test system: MDA-MB-231 breast
CAKI-1 renal = test system: CAKI-1 renal
SF-539 CNS = test system: SF-539 CNS
SK-MEL-28 melanoma = test system: SK-MEL-28 melanoma
HCC-2998 colon = test system: HCC-2998 colon
EKVX NSCLC = test system: EKVX NSCLC
DU-145 prostate = test system: DU-145 prostate
HCT-15 colon = test system: HCT-15 colon
TK-10 renal = test system: TK-10 renal
MOLT-4 leukemia = test system: MOLT-4 leukemia
BT-549 breast = test system: BT-549 breast
M14 melanoma = test system: M14 melanoma

`CC(/C=N/N(C)C1=NCCCCN1)=N/N(C)C1=NCCCCN1` was tested, and the TGI (UACC-62 melanoma) was > 100 µM, the TGI (ACHN renal) was > 100 µM and the TGI (NCI-H226 lung) was > 100 µM. The TGI (SK-MEL-5 melanoma) was > 100 µM, the TGI (SN12C renal) was > 100 µM and the TGI (NCI-H522 lung) was > 100 µM. The TGI (SK-MEL-2 melanoma) was > 100 µM, the TGI (COLO 205 colon) was > 100 µM and the TGI (OVCAR-8 ovarian) was > 100 µM. The TGI (NCI/ADR-RES ovarian) was > 100 µM, the TGI (A498 renal) was > 100 µM and the TGI (MCF7 breast) was > 100 µM. The TGI (LOX IMVI melanoma) was > 100 µM, the TGI (MDA-MB-435) was > 100 µM and the TGI (T-47D breast) was > 100 µM. For the same compound, the TGI (RXF 393 renal) was > 100 µM, the TGI (NCI-H23 lung) was > 100 µM and the TGI (OVCAR-4 ovarian) was > 100 µM. For the same compound, the TGI (MALME-3M melanoma) was > 100 µM, the TGI (U251 CNS) was > 100 µM and the TGI (HL-60(TB) leukemia) was > 100 µM. For the same compound, the TGI (SNB-19 CNS) was > 100 µM, the TGI (HS 578T breast) was > 100 µM and the TGI (OVCAR-3 ovarian) was > 100 µM. The TGI (CCRF-CEM leukemia) was > 100 µM, the TGI (HOP-62 NSCLC) was > 100 µM and the TGI (SF-295 CNS) was > 100 µM. The TGI (SR leukemia) was > 100 µM, the TGI (786-0 renal) was > 100 µM and the TGI (NCI-H460 lung) was > 100 µM. The TGI (OVCAR-5 ovarian) was > 100 µM, the TGI (HT29 colon) was > 100 µM and the TGI (SNB-75 CNS) was > 100 µM. The TGI (A549 NSCLC) was > 100 µM, the TGI (SK-OV-3 ovarian) was > 100 µM and the TGI (MDA-N) was > 100 µM. The TGI (SF-268 CNS) was > 100 µM, the TGI (HCT-116 colon) was > 100 µM and the TGI (KM12 colon) was > 100 µM. For the same compound, the TGI (UACC-257 melanoma) was > 100 µM, the TGI (RPMI-8226 leukemia) was > 100 µM and the TGI (HOP-92 NSCLC) was > 100 µM. For the same compound, the TGI (SW-620 colon) was > 100 µM, the TGI (PC-3 prostate) was > 100 µM and the TGI (K-562 leukemia) was > 100 µM. For the same compound, the TGI (UO-31 renal) was > 100 µM, the TGI (IGROV1 ovarian) was > 100 µM and the TGI (MDA-MB-231 breast) was > 100 µM. For the same compound, the TGI (CAKI-1 renal) was > 100 µM, the TGI (SF-539 CNS) was > 100 µM and the TGI (SK-MEL-28 melanoma) was > 100 µM. The TGI (HCC-2998 colon) was > 100 µM, the TGI (EKVX NSCLC) was > 100 µM and the TGI (DU-145 prostate) was > 100 µM. The TGI (HCT-15 colon) was > 100 µM, the TGI (TK-10 renal) was > 100 µM and the TGI (MOLT-4 leukemia) was > 100 µM. The TGI (BT-549 breast) was > 100 µM.

Compound `Cc1c(C#N)c2nnn(-c3ccc([N+](=O)[O-])cc3)c(=O)n2c1-c1ccccc1` has a TGI (UACC-62 melanoma) of 19.4 µM, a TGI (ACHN renal) of 16.4 µM and a TGI (NCI-H226 lung) of 26.9 µM. For the same compound, the TGI (M14 melanoma) was 25 µM, the TGI (SK-MEL-5 melanoma) was 25.2 µM and the TGI (SN12C renal) was 24.9 µM. For the same compound, the TGI (NCI-H522 lung) was 13.9 µM, the TGI (SK-MEL-2 melanoma) was 22 µM and the TGI (COLO 205 colon) was 22.9 µM. The TGI (OVCAR-8 ovarian) was 25.7 µM, the TGI (NCI/ADR-RES ovarian) was 65.5 µM and the TGI (A498 renal) was 29.5 µM. It also gave a TGI (MCF7 breast) of 19.6 µM, a TGI (LOX IMVI melanoma) of 22 µM and a TGI (MDA-MB-435) of 42.9 µM. It also gave a TGI (T-47D breast) of 14.3 µM, a TGI (RXF 393 renal) of 31.2 µM and a TGI (NCI-H23 lung) of 18.5 µM. For the same compound, the TGI (OVCAR-4 ovarian) was 27.5 µM, the TGI (MALME-3M melanoma) was 30.7 µM and the TGI (U251 CNS) was 14.5 µM. For the same compound, the TGI (HL-60(TB) leukemia) was 60.3 µM, the TGI (SNB-19 CNS) was 36.7 µM and the TGI (HS 578T breast) was > 100 µM. For the same compound, the TGI (OVCAR-3 ovarian) was 10 µM, the TGI (CCRF-CEM leukemia) was > 100 µM and the TGI (HOP-62 NSCLC) was 19.8 µM. It also gave a TGI (SF-295 CNS) of 14 µM, a TGI (SR leukemia) of 46.3 µM and a TGI (786-0 renal) of 26.6 µM. The TGI (NCI-H460 lung) was 26.5 µM, the TGI (OVCAR-5 ovarian) was 40.1 µM and the TGI (HT29 colon) was 23.7 µM. The TGI (SNB-75 CNS) was 39.7 µM, the TGI (A549 NSCLC) was > 100 µM and the TGI (SK-OV-3 ovarian) was 79.4 µM. For the same compound, the TGI (MDA-N) was 31.3 µM, the TGI (SF-268 CNS) was 32.4 µM and the TGI (HCT-116 colon) was 19 µM. For the same compound, the TGI (KM12 colon) was 20.5 µM, the TGI (UACC-257 melanoma) was 47.6 µM and the TGI (RPMI-8226 leukemia) was > 100 µM. For the same compound, the TGI (HOP-92 NSCLC) was 31.4 µM, the TGI (SW-620 colon) was 51 µM and the TGI (PC-3 prostate) was 14.7 µM. It also gave a TGI (K-562 leukemia) of 30.6 µM, a TGI (UO-31 renal) of 25.5 µM and a TGI (IGROV1 ovarian) of 33.6 µM. The TGI (MDA-MB-231 breast) was 34.7 µM, the TGI (CAKI-1 renal) was 52.2 µM and the TGI (SF-539 CNS) was 28.1 µM. The TGI (SK-MEL-28 melanoma) was 79.7 µM, the TGI (HCC-2998 colon) was 20 µM and the TGI (EKVX NSCLC) was 32 µM. For the same compound, the TGI (DU-145 prostate) was 26.1 µM, the TGI (HCT-15 colon) was 24.4 µM and the TGI (TK-10 renal) was > 100 µM. It also gave a TGI (BT-549 breast) of 31.8 µM.
